Assay [1] has as its system aldose reductase. The assay is described as follows: Inhibition of aldose reductase enzyme activity (partially purified enzyme from calf lens). The format is biochemical. The protocol: The compounds of Examples 3 and 4 were tested for their ability to reduce or inhibit aldose reductase enzyme activity, following the procedure described in U.S. Pat. No. 3,821,383 and based on the procedure of Hayman et. al., Journal of Biological Chemistry, 240, 877 (1965). The substrate employed was partially purified aldose reductase enzyme obtained from calf lens.

Assay [2] deals with sorbitol accumulation in the sciatic nerve. The assay is described as follows: Inhibition of sorbitol accumulation in the sciatic nerve of streptozotocinized (diabetic) rats. The format is in vivo, rat. The note with it: oral, at 4, 8 and 24 hours after streptozotocin, measured 27 hours after induction of diabetes. Here is the method: The compounds of Examples 3 and 4 were tested for their ability to reduce or inhibit sorbitol accumulation in the sciatic nerve of streptozotocinized (i.e. diabetic) rats by the procedure essentially described in U.S. Pat. No. 3,821,383. In the present study, the amount of sorbitol accumulation in the sciatic nerves was measured 27 hours after induction of diabetes. The compounds were administered orally at the dose levels indicated at 4, 8 and 24 hours following the administration of streptozotocin. The results obtained in this manner are presented below in terms of percent inhibition (%) afforded by the test compound as compared to the case where no compound was administered (i.e. the untreated animal, where sorbitol levels normally rise from approximately […]. tissue in the 27-hour test period): […]

For `O=C1NC(=O)C2(CCn3c(=O)ccc4cccc2c43)N1` (stereo not shown) [Example 3, Spiro[2,3-dihydro-1H, 5H-benzo[ij]quinolizin [1,4']imidazolidin]-2', 5, 4'-trione], in assay [1], the “% Inhibition at 10^-6 m (inhibition of aldose reductase enzyme activity)” value is on record as 86%. In assay [2], the “% Inhibition at 1.5 mg/kg (sorbitol accumulation in the sciatic nerve vs untreated)” value came to 27%.
With `O=C1NC(=O)C2(CCn3c(=O)ccc4cc(Cl)cc2c43)N1` (stereo not shown) [Example 4, 10-Chloro-spiro[2,3-dihydro-1H, 5H-benzo[ij]quinolizin[1,4']imidazolidin]-2', 5, 5'-trione], the “% Inhibition at 10^-6 m (inhibition of aldose reductase enzyme activity)” value in assay [1] turned out to be 94%. For the same compound, in assay [2], the “% Inhibition at 1.5 mg/kg (sorbitol accumulation in the sciatic nerve vs untreated)” value is given as 32%.

A word on the % Inhibition: it is how much of the control response was suppressed. A higher % Inhibition goes with strong suppression.

(Values after US4193996A, “Spiro-quinolone hydantoins” (Pfizer Inc., priority 1979, dated 1980).)
